This is an account of results in patent US11945779B2, “Inhibitors of cancer metastasis through inhibiting migration and invasion of cancer cells” (VSpharmtech, priority 2018, dated 2024).

In series [1] the test system is colon cancer cell line DLD-1. The series can be described thus: Trans-well cancer cell migration inhibition, DLD-1. Type of series: cell-based, human. Particulars: for IC50: Colon cancer cell DLD-1, trans-well, 16 hours, read-out: Concentration inhibiting migration of cancer cells by 50% (IC50 value). On the procedure: (§1) In order to analyze cancer cell migration inhibitory activity of CG-608, CG-609 or CG-618 prepared in Examples 1, 2, or 9, cell migration inhibitory activity was measured using a trans-well by targeting a colon cancer cell line DLD-1 (ATCC-CCL-221), pancreatic cancer cell lines AsPc-1 (ATCC-CCL-1682). CFPAC-1 (ATCC-CCL-1918). Panc-1 (ATCC-CCL-1469), and Miapaca-2 (ATCC-CCL-1420), a skin cancer cell line A375-P (ATCC-CCL-3224), lung cancer cell lines HCC-827 (ATCC-CCL-2868), A549 (ATCC-CCL-185), and NCI-H460 (ATCC-CCL-177), a prostate cancer cell line DU145 (ATCC-HTB-81), a stomach cancer cell line NuGC-3 (JCRB0822), and an ovarian cancer cell line SKOV-3 (ATCC-HTB-77).
(§2) First, the number of DLD-1 cells was measured using a hemocytometer in an RPMI medium without FBS. Thereafter, the trans-well was placed on a 24-well plate and 8×10^4 […] of cells were added. In an empty space with the trans-well on the well plate, […] of an RPM medium having 10% FBS containing CG-608, CG-609, or CG-618 was added and cultured in a CO2 incubator at 37° C. for 16 hours. After culture, […] of crystal violet (5 mg/mL of 20% […] was added to each well of the 24-well plate and the trans-well was dyed at room temperature for 30 minutes. The dyed trans-well was washed with PBS and non-migrated cells were wiped off with cotton swabs. The prepared sample was photographed with an inverted microscope mounted with a digital camera (TE 300, Nikon. Japan) and then the number of migrated cells was counted. The degree of inhibiting cell migration was calculated by Equation 1 for a group treated with the sample compared to a control group (DMSO).
(§3) In Equation 1, ‘the number of migrated cells treated with sample’ refers to the number of migrated cells measured by treating CG-608 or CG-618 of Example 1, and ‘the number of migrated cells of a control sample’ refers to the number of migrated cells measured by treating only 1% dimethyl sulfoxide (DMSO) instead of the compound.

The subject of series [2] is pancreatic cancer cell line AsPc-1. The series can be described thus: Trans-well cancer cell migration inhibition, AsPc-1. Type of series: cell-based. The note with it: Homo sapiens, ASPC1; for IC50: Pancreatic cancer cell line AsPc-1, read-out: Concentration inhibiting migration of cancer cells by 50% (IC50 value). On the procedure:
as §1, §2, §3

Series [3] relates to skin cancer cell line A375-P. The series can be described thus: Trans-well cancer cell migration inhibition, A375-P. The format is cell-based. Particulars: Homo sapiens, A375P; for IC50: Skin cancer cell A375-P, read-out: Concentration inhibiting migration of cancer cells by 50% (IC50 value). On the procedure:
as §1, §2, §3

Series [4] has as its system prostate cancer cell line DU145. Put plainly: Trans-well cancer cell migration inhibition, DU145. Particulars: for IC50: Homo sapiens, DU-145, Prostate cancer cell DU145, read-out: Concentration inhibiting migration of cancer cells by 50% (IC50 value). Type of series: cell-based. On the procedure: as §1, §2, §3
Series [5] has as its system lung cancer cell line HCC-827. The series can be described thus: Trans-well cancer cell migration inhibition, HCC-827. Type of series: cell-based. Particulars: Homo sapiens, HCC827; for IC50: Lung cancer cell HCC-827, read-out: Concentration inhibiting migration of cancer cells by 50% (IC50 value). On the procedure: as §1, §2, §3
Series [6] deals with stomach cancer cell line NuGC-3. Put plainly: Trans-well cancer cell migration inhibition, NuGC-3. Type of series: cell-based. Particulars: for IC50: Homo sapiens, Gastric cancer cell NuGC-3, read-out: Concentration inhibiting migration of cancer cells by 50% (IC50 value). On the procedure: as §1, §2, §3
Another series deals with normal cells MCF10A. The series can be described thus: Cell migration of normal cells MCF10A. The format is cell-based. Particulars: FIG. 2.
The test system of series [7] is colon cancer cell line DLD-1. The series can be described thus: Cytotoxicity / proliferation analysis (WST-1), DLD-1. The format is cell-based, human. Particulars: DLD-1, FIG. 8. On the procedure:
In order to verify cytotoxicity of CG-608 to CG-610 and CG-613 to CG-618 prepared in Examples 1 to 9, human colon cancer cell line DLD-1 cells (ATCC-CCL-221), pancreatic cancer cell line AsPc-1 cells (ATCC-CRL-1682), and normal cells MCF10A (ATCC-CRL-10317) were cultured in an RPMI medium containing 10% bovine fetal serum (FBS) while maintaining 37° C. and 5% CO2, and then the cells were detached using a 0.05% trypsin-EDTA. 4×10^3 cells calculated by a hematocytometer were inoculated in each well of a 96-well plate containing a 10% FBS containing medium and cultured in a 37° C. incubator containing 5% C2.
After 24 hours, the medium of each well was exchanged to a new medium containing a control group (0.1% DMSO) and CG-609 prepared in Example 1 or CG-618 prepared in Example 9 as a representative benproperine derivative at concentrations of 1 μM, 5 μM, and 10 μM. Thereafter, the cells were cultured in an incubator at 37° C. and 5% CO2 for 48 hours. Thereafter, […] of WST-1 (Roche) was added to each well and cultured for 2 hours, and then the absorbance was measured at 450 nm using an ELISA reader (Bio-Rad).

For another series, the system named is colon cancer cells DLD-1. Put plainly: Cancer cell invasion inhibition (Matrigel trans-well), DLD-1. The format is cell-based. The note with it: Homo sapiens, FIG. 8, read-out: Inhibition of cell invasion compared with DMSO-treated control. On the procedure: In order to analyze cancer cell invasion inhibitory activity of CG-609 or CG-618 prepared in Example 1 or 9, cell invasion inhibitory activity using a trans-well was measured by targeting colon cancer cell line DLD-1 cells or pancreatic cancer cell line AsPc-1 cells.
Matrigel was diluted by 1/5 using an RPMI medium without FBS and then […] was put into each trans-well. The cells were coated in a […] for 2 hours. The number of DLD-1 cells was measured using a hemocytometer in an RPMI medium without FBS. Thereafter, the coated trans-well was placed on a 24-well plate and 8×10^4 […] of cells were added. In an empty space of the trans-well on the well plate, […] of an RPMI medium having 10% FBS containing (S)-(−)-benproperine was added and cultured in a CO2 incubator at 37° C. for 16 hours. After culture, […] of crystal violet (5 mg/mL of 20% MeOH) was added to each well of the 24-well plate and the trans-well was dyed at room temperature for 30 minutes. The dyed trans-well was washed with PBS and non-migrated cells were wiped off with cotton swabs. The prepared sample was photographed with an inverted microscope mounted with a digital camera (TE 300, Nikon, Japan), and then the number of migrated cells was counted. The degree of inhibiting cell migration was calculated for a group treated with the sample compared to a control group (DMSO).

A short description of series [8]: Acute toxicity test for oral administration to rats. Particulars: rat, in vivo, 1000 mg/kg; SD rats, single oral dose; read-out: Minimum dose (LD50) of oral administration. On the procedure:
Six-week-old specific pathogen free (SPF) SD-based rats were divided by two per group and then CG-608, CG-609, or CG-618 prepared in Example 1, 2, or 9 was dissolved in distilled water for injection and orally administered to rats once in a dose of 1000 mg/kg.

For the compound `CC1CCCCN1C(C)COc1ccccc1Cc1ccccc1` (racemic) [CG-618, 1-(1-(2-benzylphenoxy)propan-2-yl)-2-methylpiperidine], the IC50 in series [1] (Homo sapiens) was determined as 550 nM; in series [2] it was 700 nM; in series [3], 3000 nM; in [4], 3000 nM; in [5], 500 nM; in [6] it was 8000 nM. The “Cell migration of normal cells” value with normal cells MCF10A is “did not inhibit”. For the same compound, the “Growth of cancer cells” value in series [7] was “did not affect the growth”. Also, the inhibition at 0.5 µM with colon cancer cells DLD-1 (DLD-1, 500 nM) was at least 50%. The LD50 in [8] is at least 1000 mg/kg.
As to `C[C@H](COc1ccccc1Cc1ccccc1)N1CCCC[C@@H]1C` [CG-609, (S)-1-((R)-1-(2-benzylphenoxy)propan-2-yl)-2-methylpiperidine], in series [1] (DLD-1), the “Cancer cell migration inhibitory activity relative to the benproperine derivative compound known in the related art” value was “more than 20 times”. The IC50 in series [1] (Homo sapiens) came out at 60 nM; in [2], 110 nM; in series [3] it was 700 nM; in [4], 2000 nM; in series [5], 210 nM; in series [6], 5000 nM. This compound also came in with an inhibition at 0.05 µM in series [1] (Homo sapiens, DLD-1, 50 nM, FIG. 4A) of at least 50%. Besides, the inhibition at 1 µM is at least 50% in series [1] (Homo sapiens, DLD-1, 1 μM, FIG. 3); at least 50% in series [2] (AsPc-1, 1 μM, FIG. 3); at least 50% in [3] (A375-P, 1 μM, FIG. 3); at least 50% in series [5] (HCC-827, 1 μM, FIG. 3). Further, the “Inhibition of cell migration” value is reported as at least 50% in series [4] (DU-145, concentration not given, FIG. 3) and at least 50% in series [6] (NuGC-3, concentration not given, FIG. 3). In the series on normal cells MCF10A, the “Cell migration of normal cells” value is given as “did not inhibit”. In addition, in series [7], the “Growth of cancer cells” value was “did not affect the growth”. The inhibition at 0.1 µM in the series on colon cancer cells DLD-1 (DLD-1, 100 nM) is at least 50%. For the same compound, the LD50 in [8] is at least 1000 mg/kg.
